The text below walks through data of patent publication US20230416225A1, “DIAMINOPYRIMIDINE CARBOXAMIDE INHIBITORS OF HPK1” (MERCK SHARP & DOHME LLC, priority 2020, published 2023).

In the experiment the target is T1, Human HPK1, catalytic domain (Homo sapiens, UniProt Q92918).
T1 construct: purchased Carna
T1 sequence (Q92918 1-346): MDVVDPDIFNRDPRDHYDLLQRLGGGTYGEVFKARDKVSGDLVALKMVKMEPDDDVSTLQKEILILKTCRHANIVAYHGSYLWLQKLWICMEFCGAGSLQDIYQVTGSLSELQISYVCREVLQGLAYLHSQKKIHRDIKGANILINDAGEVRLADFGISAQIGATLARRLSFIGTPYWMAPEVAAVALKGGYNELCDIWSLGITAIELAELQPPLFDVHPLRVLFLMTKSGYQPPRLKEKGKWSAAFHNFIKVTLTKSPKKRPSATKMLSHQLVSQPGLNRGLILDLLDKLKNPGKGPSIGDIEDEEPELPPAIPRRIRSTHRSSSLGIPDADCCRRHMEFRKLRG
Nature of the experiment: HPK1-SLP76 TR-FRET assay. To be noted: 75 pM HPK1, 10 uM ATP, 10 nM SLP76, 30 min compound pre-incubation. Type of experiment: biochemical. For orientation: Time-resolved FRET reads energy transfer from a long-lived donor to a nearby acceptor.
With `COc1cc2c(cc1Nc1ncc(C(N)=O)c(Nc3cc(F)ccc3F)n1)CN(C)CC2` [Example 4-11, 4-[(2,5-difluorophenyl)amino]-2-[(6-methoxy-2-methyl-1,2,3,4-tetrahydroisoquinolin-7-yl)amino]pyrimidine-5-carboxamide], the half-maximal inhibitory concentration (IC50) was found to be 0.55 nM.

In turn, `COc1cc2c(cc1Nc1ncc(C(N)=O)c(Nc3cccc(Cl)c3F)n1)CN(C)CC2` [Example 4-12, 4-[(3-chloro-2-fluorophenyl)amino]-2-[(6-methoxy-2-methyl-1,2,3,4-tetrahydroisoquinolin-7-yl)amino]pyrimidine-5-carboxamide] yielded an IC50 of 0.65 nM.

For the compound `COc1cc2c(cc1Nc1ncc(C(N)=O)c(Nc3ccc(F)c(F)c3F)n1)CN(C)CC2` [Example 4-13, 2-[(6-methoxy-2-methyl-1,2,3,4-tetrahydroisoquinolin-7-yl)amino]-4-[(2,3,4-trifluorophenyl)amino] pyrimidine-5-carboxamide], the IC50 worked out at 2.4 nM.

In turn, `COc1cc2c(cc1Nc1ncc(C(N)=O)c(Nc3cccc(C)c3F)n1)CN(C)CC2` [Example 4-14] had an IC50 of 0.18 nM.

For the compound `COc1cc(F)c(Nc2nc(Nc3cc4c(cc3OC)CCN(C)C4)ncc2C(N)=O)c(F)c1` [Example 4-15, 4-[(2,6-difluoro-4-methoxyphenyl)amino]-2-[(6-methoxy-2-methyl-1,2,3,4-tetrahydroisoquinolin-7-yl)amino]pyrimidine-5-carboxamide], it took 0.53 nM to reach half-maximal inhibition (IC50).

Consider `COc1cc2c(cc1Nc1ncc(C(N)=O)c(Nc3c(F)ccc(C)c3Cl)n1)CN(C)CC2` [Example 4-16], for which the IC50 was found to be 0.1 nM.

In turn, `COc1cc2c(cc1Nc1ncc(C(N)=O)c(Nc3c(O)cccc3F)n1)CN(C)CC2` [Example 4-17, 4-[(2-fluoro-6-hydroxyphenyl)amino]-2-[(6-methoxy-2-methyl-1,2,3,4-tetrahydroisoquinolin-7-yl)amino]pyrimidine-5-carboxamide] had a 50% inhibitory concentration (IC50) of 1.01 nM.

The compound `COc1cc2c(cc1Nc1ncc(C(N)=O)c(Nc3cc(C)ccc3Cl)n1)CN(C)CC2` [Example 4-18, 4-[(2-chloro-5-methylphenyl)amino]-2-[(6-methoxy-2-methyl-1,2,3,4-tetrahydroisoquinolin-7-yl)amino]pyrimidine-5-carboxamide] yielded an IC50 of 0.48 nM.

As for `COc1cc2c(cc1Nc1ncc(C(N)=O)c(Nc3ccc(C)cc3Cl)n1)CN(C)CC2` [Example 4-19, 4-[(2-chloro-4-methylpheny 1)amino]-2-[(6-methoxy-2-methyl-1,2,3,4-tetrahydroisoquinolin-7-yl)amino]pyrimidine-5-carboxamide], the IC50 stood at 0.38 nM.

The compound `COc1cc2c(cc1Nc1ncc(C(N)=O)c(Nc3c(Cl)ccc(C)c3F)n1)CN(C)CC2` [Example 4-20, 4-[(6-chloro-2-fluoro-3-methylphenyl)amino]-2-[(6-methoxy-2-methyl-1,2,3,4-tetrahydroisoquinolin-7-yl)amino]pyrimidine-5-carboxamide] had a 50% inhibitory concentration (IC50) of 0.21 nM.

`COc1cc2c(cc1Nc1ncc(C(N)=O)c(Nc3c(F)cc(F)cc3Cl)n1)CN(C)CC2` [Example 4-21, 4-[(2-chloro-4,6-difluorophenyl)amino]-2-[(6-methoxy-2-methyl-1,2,3,4-tetrahydroisoquinolin-7-yl)amino]pyrimidine-5-carboxamide] showed an IC50 of 0.45 nM.

In turn, `Cc1cccc(F)c1Nc1nc(Nc2cnn(CC3CC3)c2)ncc1C(N)=O` [Example 4-22, 2-{[1-(cyclopropylmethyl)-1H-pyrazol-4-yl]amino}-4-[(2-fluoro-6-methylphenyl)amino] pyrimidine-5-carboxamide] came in with a half-maximal inhibitory concentration (IC50) of 384 nM.

Take `Cc1cccc(F)c1Nc1nc(Nc2cnn(CC(C)(C)O)c2)ncc1C(N)=O` [Example 4-23, 4-[(2-fluoro-6-methylphenyl)amino]-2-{[1-(2-hydroxy-2-methylpropyl)-1H-pyrazol-4-yl]amino}pyrimidine-5-carboxamide]: the IC50 was found to be 443 nM.

`Cc1cccc(F)c1Nc1nc(Nc2cnn(CC(F)(F)F)c2)ncc1C(N)=O` [Example 4-24, 4-[(2-fluoro-6-methylphenyl)amino]-2-{[1-(2,2,2-trifluoroethyl)-1H-pyrazol-4-yl]amino}pyrimidine-5-carboxamide]: half-maximal inhibition (IC50) was put at 594 nM.

In the case of `Cc1cccc(F)c1Nc1nc(Nc2ccc(S(C)(=O)=O)cc2)ncc1C(N)=O` [Example 4-25, 4-[(2-fluoro-6-methylphenyl)amino]-2-{[4-(methylsulfonyl)phenyl]amino} pyrimidine-5-carboxamide], the IC50 stood at 81.6 nM.

In turn, `COc1cc2c(cc1Nc1ncc(C(N)=O)c(Nc3ccccc3C3CC3)n1)CN(C)CC2` [Example 4-26, 4-[(2-cyclopropylphenyl)amino]-2-[(6-methoxy-2-methyl-1,2,3,4-tetrahydroisoquinolin-7-yl)amino]pyrimidine-5-carboxamide] displayed an IC50 of 0.17 nM.

With `CCc1ccccc1Nc1nc(Nc2cc3c(cc2OC)CCN(C)C3)ncc1C(N)=O` [Example 4-27], inhibition was half-maximal at 0.08 nM (IC50).

As to `CN1CCc2cc(F)c(Nc3ncc(C(N)=O)c(Nc4c(F)cccc4C(F)(F)F)n3)cc2C1` [Example 4-29, 2-[(6-fluoro-2-methyl-1,2,3,4-tetrahydroisoquinolin-7-yl)amino]-4-{[2-fluoro-6-(trifluoromethyl)phenyl]amino} pyrimidine-5-carboxamide], the concentration for half-maximal inhibition (IC50) was 0.2 nM.

As to `COc1cc2c(cc1Nc1ncc(C(N)=O)c(Nc3c(F)cc(Br)cc3F)n1)CN(C)CC2` [Example 4-30, 4-[(4-bromo-2,6-difluorophenyl)amino]-2-[(6-methoxy-2-methyl-1,2,3,4-tetrahydroisoquinolin-7-yl)amino]pyrimidine-5-carboxamide], it took 0.42 nM to reach half-maximal inhibition (IC50).

As for `COc1cc2c(cc1Nc1ncc(C(N)=O)c(Nc3c(F)cccc3OC(F)F)n1)CN(C)CC2` [Example 4-31, 4-{[2-(difluoromethoxy)-6-fluorophenyl]amino}-2-1(6-methoxy-2-methyl-1,2,3,4-tetrahydroisoquinolin-7-yl)amino|pyrimidine-5-carboxamide], the IC50 was determined as 0.2 nM.

`CN1CCc2cc(F)c(Nc3ncc(C(N)=O)c(Nc4cccc5c4OC(C)(C)C5)n3)cc2C1` [Example 4-32, 4-[(2,2-dimethyl-2,3-dihydro-1-benzofuran-7-yl)amino]-2-[(6-fluoro-2-methyl-1,2,3,4-tetrahydroisoquinolin-7-yl)amino]pyrimidine-5-carboxamide] gave an IC50 of 1.13 nM.

Compound `COc1cc2c(cc1Nc1ncc(C(N)=O)c(Nc3c(C)cc(C#N)cc3F)n1)CN(C)CC2` [Example 4-33, 4-[(4-cyano-2-fluoro-6-methylphenyl)amino]-2-[(6-methoxy-2-methyl-1,2,3,4-tetrahydroisoquinolin-7-yl)amino]pyrimidine-5-carboxamide] came in with a half-inhibitory concentration (IC50) of 0.44 nM.

In turn, `Cc1cccc(F)c1Nc1nc(Nc2c(C)n[nH]c2C)ncc1C(N)=O` [Example 4-34, 2-[(3,5-dimethyl-1H-pyrazol-4-yl)amino]-4-[(2-fluoro-6-methylphenyl)amino] pyrimidine-5-carboxamide] came in with a concentration for half-maximal inhibition (IC50) of 65.1 nM.

Take `Cc1cccc(F)c1Nc1nc(Nc2cnn(C)c2)ncc1C(N)=O` [Example 4-35, 4-[(2-fluoro-6-methylphenyl)amino]-2-[(1-methyl-1H-pyrazol-4-yl)amino]pyrimidine-5-carboxamide]: it took 158 nM to reach half-maximal inhibition (IC50).

`COc1cc2c(cc1Nc1ncc(C(N)=O)c(Nc3c(F)cccc3C(F)(F)F)n1)CN(CC(C)(C)O)CC2` [Example 5-1, 4-((2-Fluoro-6-(trifluoromethyl)phenyl)amino)-2-((2-(2-hydroxy-2-methylpropyl)-6-methoxy-1,2,3,4-tetrahydroisoquinolin-7-yl)amino)pyrimidine-5-carboxamide] yielded a half-maximal inhibitory concentration (IC50) of 2.97 nM.

Turning to `COc1cc2c(cc1Nc1ncc(C(N)=O)c(Nc3c(C)cccc3F)n1)CN(CC(C)(C)O)CC2` [Example 5-2], the IC50 worked out at 2.54 nM.

`CS(=O)(=O)c1ccc(Nc2ncc(C(N)=O)c(Nc3cccc4c3CCNC4)n2)cc1` [Example 7-1, 2-{[4-(methylsulfonyl)phenyl]amino}-4-[(1,2,3,4-tetrahydroisoquinolin-5-yl)amino]pyrimidine-5-carboxamide] came in with an IC50 of 0.66 nM.

`COc1cc2c(cc1Nc1ncc(C(N)=O)c(Nc3ccccc3N3C(=O)OC[C@@H]3C)n1)CN(C)CC2` [Example 7-2, 2-[(6-methoxy-2-methyl-1,2,3,4-tetrahydroisoquinolin-7-yl)amino]-4-({2-[(4S)-4-methyl-2-oxo-1,3-oxazolidin-3-yl]phenyl}amino)pyrimidine-5-carboxamide] displayed a half-inhibitory concentration (IC50) of 0.15 nM.

On to `COc1cc2c(cc1Nc1ncc(C(N)=O)c(Nc3cccc4c3CCNC4)n1)CN(C)CC2` [Example 7-4, 2-[(6-methoxy-2-methyl-1,2,3,4-tetrahydroisoquinolin-7-yl)amino]-4-[(1,2,3,4-tetrahydroisoquinolin-5-yl)amino]pyrimidine-5-carboxamide], for which it took 0.07 nM to reach half-maximal inhibition (IC50).

The compound `COc1cc2c(cc1Nc1ncc(C(N)=O)c(Nc3cccc4nn[nH]c34)n1)CN(C)CC2` [Example 7-5, 4-[(1H-benzotriazol-7-yl)amino]-2-[(6-methoxy-2-methyl-1,2,3,4-tetrahydroisoquinolin-7-yl)amino]pyrimidine-5-carboxamide] yielded an IC50 of 0.5 nM.

`COc1cc2c(cc1Nc1ncc(C(N)=O)c(Nc3cccc4nnc(C)cc34)n1)CN(C)CC2` [Example 7-6, 2-[(6-methoxy-2-methyl-1,2,3,4-tetrahydroisoquinolin-7-yl)amino]-4-[(3-methylcinnolin-5-yl)amino]pyrimidine-5-carboxamide] displayed an IC50 of 70.5 nM.

Broadly, the IC50 is the concentration needed to halve the response being measured. Low values mean inhibition by little substance, high ones a need for much substance.
